Experimental data taken from PubChem BioAssay AID489032 (Sanford-Burnham Center for Chemical Genomics, 2010).
Calls of active or inactive are those of the source. How the calls were made is not given here.

test system: UPR adaptive arm reporter cells, luciferase luminescence; experiment: activators of adaptive UPR signalling, dose response, cell-based, luciferase luminescence (AID 489032)

| Compound | EC50 |
| --- | --- |
| CCOC(=O)C(=CNc1nc(-c2ccccc2)c(C(=O)Nc2ccc(-c3ccccc3)cc2)s1)C(=O)OCC | 24.7 µM (inactive) |
| CN(C)CCCN(C(=O)c1ccc(S(=O)(=O)N2CCCCCC2)cc1)c1nc2ccc(Br)cc2s1 | > 80 µM (inactive) |
| COc1cc2c(cc1NC(=S)NC(=O)/C=C/c1ccco1)oc1ccccc12 | 21.3 µM (inactive) |
| O=C(Nc1ccc(Cl)cc1)Nc1ccccc1Sc1ncc([N+](=O)[O-])s1 | > 80 µM (inactive) |
| COc1ccc(-c2cc(C(F)F)n3ncc(C(=O)Nc4ccc(C(=O)N5CCOCC5)cc4)c3n2)cc1 | > 80 µM (inactive) |
| CCc1ccc2nc(N(CCCN(C)C)C(=O)c3ccc(S(=O)(=O)N4CCc5ccccc5C4)cc3)sc2c1 | > 80 µM (inactive) |
| Cc1cccc(Nc2nc3c(S(=O)(=O)c4ccccc4)nnn3c3ccccc23)c1C | 50.2 µM (inactive) |
| COc1ccccc1N=Cc1c(O)c2ccccc2oc1=O | 16.4 µM |
| Cc1ccc(C(=O)N2N=C(c3ccc(Br)cc3)CC2c2ccccc2O)cc1 (stereo not drawn) | > 80 µM (inactive) |
| Cn1c(=O)c2c(SCC(=O)Nc3ccccc3F)nc(-c3ccccc3F)nc2n(C)c1=O | 36.1 µM (inactive) |
| CCOC(=O)c1nnc(-c2ccc(C)cc2)nc1Sc1cccc(Cl)c1 | > 80 µM (inactive) |
| CC1CCC(C(C)C)C(OC(=O)Cn2c(-c3ccc(Br)cc3)[n+](C)c3ccccc32)C1 (stereo not drawn) | > 80 µM (inactive) |
| O=C(/C=C\c1cn(-c2ccccc2)nc1-c1ccccc1)Nc1nccs1 | > 80 µM (inactive) |
| Cn1nc(C(F)(F)F)c(/C=N/OC(=O)c2ccccc2)c1SCc1ccc(Cl)cc1 | 35.5 µM (inactive) |
| CC1CCC(C(C)C)C(OC(=O)Cn2c(-c3ccc(Cl)cc3)[n+](C)c3ccccc32)C1 (stereo not drawn) | > 80 µM (inactive) |
| COc1ccc(-n2c(C)cc(C(=O)CCl)c2C)cc1 | > 80 µM (inactive) |
| CCOc1ccc(NC(=S)NC(=O)/C=C/c2ccc(OC)c(OC)c2)c([N+](=O)[O-])c1 | > 80 µM (inactive) |
| COc1cccc2sc(N3CCN(c4nc5ccccc5s4)CC3)nc12 | > 80 µM (inactive) |
| CN1C(=O)/C(=C/c2ccc(C(=O)NC3CCCC3)cc2)Oc2ccccc21 | > 80 µM (inactive) |
| Oc1ccc(-c2nc3ccc4ccccc4c3c3c2CCC3)cc1O | 28.4 µM (inactive) |
| CCOC(=O)c1nnc(-c2ccccc2)nc1Sc1c(Cl)cccc1Cl | > 80 µM (inactive) |
| O=C(Nc1ccc2nc3n(c(=O)c2c1)CCCCC3)c1ccccc1Cl | > 80 µM (inactive) |

| Compound | EC50 |
| --- | --- |
| CCOc1cccc(C(=O)Nc2cccc(-c3nnc(-c4ccc(C)cc4)o3)c2)c1 | > 80 µM (inactive) |
| FC(F)(F)c1nnc2c(Sc3ccc(Cl)cc3)nc3ccccc3n12 | > 80 µM (inactive) |
| Cc1ccccc1NC(=O)c1ccc(N/N=C/c2ccccc2O)c([N+](=O)[O-])c1 | > 80 µM (inactive) |
| CC1CCN(Cc2c(C(=O)N/N=C/c3ccc(C(F)(F)F)cc3)nnn2-c2nonc2N)CC1 | > 80 µM (inactive) |
| Oc1ccc(Br)cc1/C=N/Nc1ccccn1 | > 80 µM (inactive) |
| CCOc1ccccc1CNC(=O)C1CCN(c2nnc(C)c3c(C)n(-c4ccc(C)cc4)nc23)CC1 | > 80 µM (inactive) |
| CCOc1cc(/C=N/N=C(\N)c2nonc2N)cc(Br)c1OCc1cccc2ccccc12 | > 80 µM (inactive) |
| Oc1ccc(/C=N/Nc2nc(N3CCCC3)nc(N3CCCC3)n2)cc1O | > 80 µM (inactive) |
| CCOC(=O)c1c(NC(=O)CNC2CCCc3ccccc32)sc(C(N)=O)c1C (stereo not drawn) | > 80 µM (inactive) |
| Cc1cc(C)c2c(n1)sc1c(-c3ccccc3)c(C#N)c(N)nc12 | > 80 µM (inactive) |
| O=C(Nc1ccc2oc(-c3ccccc3Cl)nc2c1)c1cncc(Br)c1 | > 80 µM (inactive) |
| O=[N+]([O-])c1ccc(N/N=C/c2ccc(OCc3cccc4ccccc34)cc2)nc1 | > 80 µM (inactive) |
| Clc1ccc(C2=Nn3c(nnc3-c3cc(-c4ccccc4)n[nH]3)SC2)cc1 | > 80 µM (inactive) |
| C#CCOCCOCCOCCNc1nc(N2CCN(C(=O)CCCCCCCCCCNC(=O)[C@H](CCCCN)n3cc(C[C@@H](C)CC)nn3)CC2)nc(N2CCN(C(=O)CCCCCCCCCCNC(=O)[C@H](CCCN=C(N)N)n3cc(C[C@@H](C)CC)nn3)CC2)n1 | > 80 µM (inactive) |
| CCn1cc(C(=O)NC(=S)Nc2sc3c(c2C(=O)OC)CCCCCC3)cn1 | > 80 µM (inactive) |
| Oc1cc(-c2cccnc2)cc2cccnc12 | > 80 µM (inactive) |
| CC(C)N(C(=O)[C@H]1C[C@H](CC(=O)NCC23CC4CC(CC(C4)C2)C3)C(=O)N2CCc3c([nH]c4ccc(Cl)cc34)[C@]12C)C(C)C | > 80 µM (inactive) |
| COc1ccc(/C=C/c2nc3cc(-c4ccccc4)ccc3o2)cc1O | > 80 µM (inactive) |
| COC(=O)Cc1csc(/N=C/c2c(O)n(-c3cccc(C(F)(F)F)c3)c(=O)c3ccccc23)n1 | > 80 µM (inactive) |
| COc1ccc(Cn2c(SCc3cc(C)ccc3C)nc3cc(OC)c(OC)cc3c2=N)cc1 | > 80 µM (inactive) |
| CCCNC(=O)c1c(N)n(-c2ccc3c(c2)OCO3)c2nc3ccccc3nc12 | > 80 µM (inactive) |
| COc1ccc(C(CCNCc2ccc(F)cc2)c2ccc(F)cc2)cc1 (stereo not drawn) | 9.17 µM |

| Compound | EC50 |
| --- | --- |
| COc1cc(/C=N/Nc2nc(Nc3ccc(C)cc3)nc(-n3nc(C)cc3C)n2)cc(OC)c1OC | 19.7 µM |
| CCCCNc1c(-c2ccc(-c3ccc(C(C)=O)cc3)c(OC)c2)nc2cc(C)ccn12 | > 80 µM (inactive) |
| O=c1cc2oc3cc(O)c(O)cc3c(-c3ccccc3[N+](=O)[O-])c-2cc1O | > 80 µM (inactive) |
| COc1ccc(-c2c(-c3cc(OC)cc(OC)c3)n(C)c3ccc(-c4cnc(N)nc4)cc23)cc1 | 36.1 µM (inactive) |
| COc1ccc(-c2csc(NC(=S)NC(=O)/C=C/c3ccco3)n2)cc1Br | 41.9 µM (inactive) |
| CCOc1cc(CNC(C)(C)CO)cc(Br)c1OCc1ccc(Cl)cc1Cl | 20 µM |
| Clc1ccc(-c2ccc(/C=N/Nc3nncc(-c4ccccc4)n3)o2)cc1 | > 80 µM (inactive) |
| O=C(/C=C/c1ccccc1)NC(NC(=S)Nc1cccc(Cl)c1)C(Cl)(Cl)Cl (stereo not drawn) | > 80 µM (inactive) |
| CCC(Sc1nnc2c3ccccc3n(CC)c2n1)C(=O)Nc1sc2c(c1C#N)CCCC2 (stereo not drawn) | 16.5 µM |
| CCOC(=O)c1sc(-c2ccccc2)cc1NC(=O)Nc1ccc([N+](=O)[O-])cc1 | 24.2 µM (inactive) |
| COc1cc(/C=N/Nc2nc(Nc3ccccc3)nc(-n3nc(C)cc3C)n2)cc(OC)c1OC | > 80 µM (inactive) |
| COc1ccc2nc(NC(=O)c3cccc(-c4cc5ccccc5oc4=O)c3)sc2c1 | > 80 µM (inactive) |
| Cc1sc(NC(=O)c2cc(-c3ccc(Cl)cc3)nc3ccccc23)c(C(N)=O)c1C | 23.9 µM (inactive) |
| Cc1ccc(Nc2nc3ccc(Cl)cc3n3cnnc23)cc1F | > 80 µM (inactive) |
| COc1cc(OC)cc(C(=O)Nc2ccc3nc4n(c(=O)c3c2)CCCCC4)c1 | 31.9 µM (inactive) |
| CCOC(=O)C1=C(C)N=c2s/c(=C3/C(=O)Nc4ccccc43)c(=O)n2C1c1ccc(C)cc1 (stereo not drawn) | > 80 µM (inactive) |
| CCOC(=O)c1nnc(-c2ccc(C)cc2)nc1Sc1ccccc1Cl | > 80 µM (inactive) |
| Cc1cccc2sc(NC(=O)c3cc(S(=O)(=O)N(C)C)ccc3N3CCCC3)nc12 | 9.84 µM |
| CCOc1cc(/C=N/NC(N)=S)cc(Br)c1OCc1ccccc1C | > 80 µM (inactive) |
| CC(C)=CCc1c2c(c3occ(-c4ccc(O)cc4)c(=O)c3c1O)C=CC(C)(C)O2 | > 80 µM (inactive) |
| Cc1cccc(NC(=O)CSc2nc(C)c(CC(=O)c3ccc(Br)cc3)c(C)c2C#N)c1C | > 80 µM (inactive) |
| COc1cc(CNCCO)cc(Cl)c1OCc1ccc(Cl)cc1Cl | > 80 µM (inactive) |

| Compound | EC50 |
| --- | --- |
| Cc1ccc(S(=O)(=O)Cc2cc(F)c([N+](=O)[O-])cc2[N+](=O)[O-])cc1 | > 80 µM (inactive) |
| O=C(COc1ccc(Cl)cc1Cl)NN=C1c2ccccc2-c2ccccc21 | > 80 µM (inactive) |
| CCOc1cc(/C=C2/C(=N)N3C=CSC3=NC2=O)ccc1OCCCOc1ccccc1C | > 80 µM (inactive) |
| CCCCN1C(=O)C(=O)c2cc(Cl)ccc21 | 52.4 µM (inactive) |
| Cc1cccc(N2CCN(C(=S)Nc3ccc4nc(N5CCN(C)CC5)cc(C)c4c3)CC2C)c1 (stereo not drawn) | > 80 µM (inactive) |
| O=C(NCc1ccccc1Br)c1cccc2c1C(=O)c1ccc(-c3ccc(OC(F)(F)F)cc3)cc1S2(=O)=O | 19.2 µM |
| Cc1ccc(-c2nc(N/N=C/c3cccc([N+](=O)[O-])c3)c3ccccc3n2)cc1 | > 80 µM (inactive) |
| CCN(CC)c1ccc(N=Cc2c(O)n(-c3ccc(Cl)cc3)c(=O)[nH]c2=O)cc1 | 22.7 µM (inactive) |
| COc1ccc2cc1Oc1ccc(cc1)CC1c3c(cc(OC)c4c3Oc3cc5c(cc3O4)CCNC5C2)CCN1C (stereo not drawn) | > 80 µM (inactive) |
| NCCOc1ccc(C23CC4CC(CC(C4)C2)C3)cc1 | > 80 µM (inactive) |
| CCOC(=O)c1c(NC(=O)c2cc(-c3ccc(O)cc3)on2)sc(C(C)=O)c1C | > 80 µM (inactive) |
| O=c1[nH]c(-c2ccc(-c3cccc(Cl)c3)o2)nc2ccccc12 | 13.7 µM |
| CC(C)(C)c1csc(NC(=O)c2ccc(Cl)s2)n1 | > 80 µM (inactive) |
| CC1CCN(Cc2c(C(=O)N/N=C/c3ccc(C(C)(C)C)cc3)nnn2-c2nonc2N)CC1 | > 80 µM (inactive) |
| O=C(O)c1ccc(N2C(=O)/C(=C/c3ccc(-c4ccc([N+](=O)[O-])cc4)o3)C=C2c2ccccc2)cc1 | > 80 µM (inactive) |
| Cc1ccnc(N/C=C(\C#N)c2nc(-c3cccc(Br)c3)cs2)c1 | 20.7 µM (inactive) |
| Cc1cc(C)nc(SCc2ccc(C(=O)N/N=C/c3cccc(O)c3O)cc2)n1 | > 80 µM (inactive) |
| CCCCCCCCCCOC(=O)Cn1c(COc2ccc(OC)cc2)[n+](C)c2ccccc21 | > 80 µM (inactive) |
| CC(C)=CCCC1(C)C=Cc2c(c(C)cc3c2[nH]c2cc(O)ccc23)O1 (stereo not drawn) | > 80 µM (inactive) |
| COc1ccccc1-c1cc(-c2ccccc2)nc(SC(C(N)=O)c2ccccc2)c1C#N (stereo not drawn) | 71.2 µM (inactive) |
| COc1ccc(-c2nn(C)c(=O)c3ccccc23)cc1NC(=O)Cn1nc(C)c2ccccc2c1=O | 28 µM (inactive) |
| COCc1cc(C)nc(OCC(=O)N/N=C/c2ccc(-c3cc([N+](=O)[O-])ccc3Cl)o2)c1C#N | 13.5 µM |
